According to the CheMixHub viscosity set:

Test: xn = mol fraction of the nth substance listed

FC(F)Cl + CC(F)F
viscosity [mPa·s], 101 kPa
Conditions | 293.35 K | 293.45 K | 312.95 K | 313.25 K
x1 = 0.159 | – | 0.178 | 0.1422 | –
x1 = 0.34 | – | 0.1749 | – | 0.1424
x1 = 0.534 | 0.1805 | – | – | 0.1485

CC(=O)OCc1ccccc1 + CCCCO
viscosity [mPa·s], 101.33 kPa
Conditions | x1 = 0.1023 | x1 = 0.1976 | x1 = 0.3075 | x1 = 0.4014 | x1 = 0.5022 | x1 = 0.5973 | x1 = 0.7048 | x1 = 0.8005 | x1 = 0.8914
293.15 K | 2.803 | 2.748 | 2.685 | 2.633 | 2.578 | 2.527 | 2.471 | 2.422 | 2.376
303.15 K | 2.224 | 2.18 | 2.129 | 2.087 | 2.043 | 2.002 | 1.957 | 1.918 | 1.881
313.15 K | 1.66 | 1.641 | 1.619 | 1.6 | 1.581 | 1.562 | 1.542 | 1.524 | 1.507
323.15 K | 1.104 | 1.116 | 1.131 | 1.144 | 1.158 | 1.172 | 1.187 | 1.201 | 1.214

O=CC(Cl)(Cl)Cl + O
323.15 K, 101 kPa
Conditions | viscosity [mPa·s]
x1 = 0.05 | 1.031
x1 = 0.1 | 1.731
x1 = 0.15 | 2.671
x1 = 0.2 | 4.156
x1 = 0.25 | 5.987
x1 = 0.3 | 8.751
x1 = 0.35 | 11.36
x1 = 0.4 | 14.33
x1 = 0.425 | 15.57
x1 = 0.45 | 16.37
x1 = 0.465 | 17.06
x1 = 0.475 | 17.38
x1 = 0.49 | 17.26
x1 = 0.5 | 16.72
x1 = 0.55 | 14.07
x1 = 0.6 | 11.39
x1 = 0.7 | 5.695
x1 = 0.8 | 2.681
x1 = 0.9 | 1.447
